# Tested on: IUGR rats
# Assay: Insulin content of pancreas of IUGR rats at postnatal day 57 after HMO supplementation (ELISA)
# Assay type: in vivo, Sprague-Dawley rats
# Details: gavage 3 g/kg body weight d7 to d21, then diet with 4.5 wt% HMO d22 to d57, sacrifice at day 57 after 6-hr fasting, compared with control IUGR rats (about 50 μg insulin per g pancreatic tissue), FIG. 1, *P<0.05
# Text: Three groups of time-mated pregnant Sprague-Dawley female rats were bought from Charles River laboratories. One group was submitted to food restriction of 60% during the last 10 days of gestation and their offspring were cross-fostered to normally fed rats. A second group of pregnant females was normally fed and their offspring cross-fostered among the same group of dams. Immediately after birth ([…]), the born rat pups-subjects of the experiment-were assigned to one of the following groups: • IUGR group (negative control; n=20): IUGR rats being fed a normal diet after birth; • IUGR rats+HMO (test groups): During the experiment, they were reared by their mothers for 21 days and supplemented with HMOs (2-FL, LNnT or the Mix of 2-FL and LNnT). At weaning, they were fed a diet supplemented with the same HMOs, see details below. […] All rat pups were fed from birth (d=1) up to 57 days (d=57) based on the following protocol: • d1 to d6: all groups of rats were nursed by dam (mothers' milk only); • d7 to d21: all rats were nursed by dam (mothers' milk only). […] Rats were sacrificed at day 57 (postnatal day 57=p57) after a 6-hr fasting period and pancreas was dissected and its insulin content was extracted using a solution acid-ethanol and quantified using an Ultra Sensitive Insulin ELISA kit ([…]., Downer Grove, Ill., USA) with and inter assay CV of 4.0%.
row,Compound,insulin content of the rat's pancreas (amount of insulin per gram of pancreatic tissue)
1,"CC(=O)N[C@H]1[C@H](O[C@H]2[C@@H](O)[C@@H](CO)O[C@@H](O[C@H]3[C@H](O)[C@@H](O)C(O)O[C@@H]3CO)[C@@H]2O)O[C@H](CO)[C@@H](O[C@@H]2O[C@H](CO)[C@H](O)[C@H](O)[C@H]2O)[C@@H]1O (mixture of isomers) [LNnT, lacto-N-neotetraose]",about the same level of insulin
2,2′-fucosyllactose [2FL],significantly higher value of insulin

# — patent US20220000892A1, “INFANT NUTRITIONAL COMPOSITION FOR USE IN THE ENHANCEMENT OF PANCREATIC MATURATION AND INSULIN BIOSYNTHESIS” (SOCIETE DES PRODUITS NESTLE S.A., priority 2018, published 2022)
